From article PMC9607545, “Cry4Aa and Cry4Ba Mosquito-Active Toxins Utilize Different Domains in Binding to a Particular Culex ALP Isoform: A Functional Toxin Receptor Implicating Differential Actions on Target Larvae” (Toxins, 2022)

Assays:
Cq-mALP1264 = target: T1, Cq-mALP1264 (Culex quinquefasciatus, UniProt A0A9E8AEX0); assay: hydrolysis in Sf9 cell lysate, absorbance of p-nitrophenol at […] nm; format: biochemical; details: 5 mM pNPP, 100 mM Tris-HCl pH 9.5, 5 mM MgCl2, 100 mM NaCl, 30 °C, 10 min; control: CAT-expressing lysate (endogenous ALP activity present)
T1 construct: full-length ORF, 552 residues, ~61 kDa, 1656 bp cDNA from 4th instar larval midgut; N-terminal signal peptide and predicted GPI anchor; baculovirus (AcMNPV) expression in Sf9 cells
T1 sequence (A0A9E8AEX0 21-552): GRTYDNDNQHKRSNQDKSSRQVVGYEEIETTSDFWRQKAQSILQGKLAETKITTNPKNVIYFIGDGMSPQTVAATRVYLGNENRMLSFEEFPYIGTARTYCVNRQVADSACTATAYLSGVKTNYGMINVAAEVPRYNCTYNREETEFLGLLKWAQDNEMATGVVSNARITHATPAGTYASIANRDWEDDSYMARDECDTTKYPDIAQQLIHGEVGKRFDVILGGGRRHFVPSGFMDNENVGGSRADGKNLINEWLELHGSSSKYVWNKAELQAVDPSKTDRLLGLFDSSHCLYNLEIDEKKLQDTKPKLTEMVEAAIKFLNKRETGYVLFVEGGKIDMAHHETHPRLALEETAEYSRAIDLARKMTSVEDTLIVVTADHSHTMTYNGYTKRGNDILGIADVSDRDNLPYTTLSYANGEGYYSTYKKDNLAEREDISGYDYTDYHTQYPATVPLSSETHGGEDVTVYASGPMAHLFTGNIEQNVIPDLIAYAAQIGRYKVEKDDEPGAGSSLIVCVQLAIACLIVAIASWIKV

Cq-mALP1263 = target: T2, Cq-mALP1263 (Culex quinquefasciatus, UniProt A0A9E8ACD0); assay: as above; format: biochemical; details: 5 mM pNPP, 100 mM Tris-HCl pH 9.5, 5 mM MgCl2, 100 mM NaCl, 30 °C, 10 min; control: CAT-expressing lysate (endogenous ALP activity present)
T2 construct: full-length ORF, 523 residues, ~57 kDa, 1569 bp cDNA from 4th instar larval midgut; N-terminal signal peptide and predicted GPI anchor; baculovirus (AcMNPV) expression in Sf9 cells
T2 sequence (A0A9E8ACD0 19-523): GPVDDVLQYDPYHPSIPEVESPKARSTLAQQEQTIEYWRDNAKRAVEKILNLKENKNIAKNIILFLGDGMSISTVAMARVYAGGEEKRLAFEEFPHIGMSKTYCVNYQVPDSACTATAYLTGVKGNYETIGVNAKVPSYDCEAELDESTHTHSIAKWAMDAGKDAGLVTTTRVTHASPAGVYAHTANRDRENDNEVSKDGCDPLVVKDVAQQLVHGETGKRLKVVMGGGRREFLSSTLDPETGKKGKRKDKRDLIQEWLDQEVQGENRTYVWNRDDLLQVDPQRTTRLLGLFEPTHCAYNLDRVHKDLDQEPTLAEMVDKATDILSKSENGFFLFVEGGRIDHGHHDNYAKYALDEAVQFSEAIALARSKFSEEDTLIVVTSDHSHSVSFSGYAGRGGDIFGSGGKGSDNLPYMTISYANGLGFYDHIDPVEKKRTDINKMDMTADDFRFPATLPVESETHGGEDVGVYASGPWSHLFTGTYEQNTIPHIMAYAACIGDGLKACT

Q: O=[N+]([O-])c1ccc(OP(=O)(O)O)cc1 [pNPP] was tested. Which “hydrolysis in Sf9 cell lysate, absorbance of p-nitrophenol at 405 nm” value (Cq-mALP1264) did it give?
A: The value was “both Cq-mALP-expressed cells produced significantly higher ALP activity than CAT-expressed cells”.

Q: What about the “hydrolysis in Sf9 cell lysate, absorbance of p-nitrophenol at 405 nm” value (Cq-mALP1263) of the same molecule?
A: The value was “both Cq-mALP-expressed cells produced significantly higher ALP activity than CAT-expressed cells”.
